Data taken from PMC11345841, “Exploring 2-Sulfonylpyrimidine Warheads as Acrylamide Surrogates for Targeted Covalent Inhibition: A BTK Story” (Journal of Medicinal Chemistry, 2024).
Like-named read-outs stand apart in the source and are kept apart here.

How the values were obtained:
[1] = target: T1, EGFR(L747-E749del, A750P) (Homo sapiens, UniProt P00533, A750P/DEL747-749); assay: KINOMEscan ScanTK; assay type: binding
T1 construct: purchased Eurofins DiscoverX KINOMEscan (scanTK)

[2] = target: T2, ERBB3 (Homo sapiens, UniProt P21860); assay: KINOMEscan ScanTK; assay type: binding; conditions: ERBB3
T2 construct: purchased Eurofins DiscoverX KINOMEscan (scanTK)

[3] = target: T3, EGFR(T790M) (Homo sapiens, UniProt P00533, T790M); assay: KINOMEscan ScanTK; assay type: binding
T3 construct: purchased Eurofins DiscoverX KINOMEscan (scanTK)

[4] = target: T4, MET(Y1235D) (Homo sapiens, UniProt P08581, Y1235D); assay: KINOMEscan ScanTK; assay type: binding
T4 construct: purchased Eurofins DiscoverX KINOMEscan (scanTK)

[5] = target: T5, TRKB (Homo sapiens, UniProt Q16620); assay: KINOMEscan ScanTK; assay type: binding; conditions: TRKB
T5 construct: purchased Eurofins DiscoverX KINOMEscan (scanTK)

[6] = target: T6, FLT3(R834Q) (Homo sapiens, UniProt P36888, R834Q); assay: KINOMEscan ScanTK; assay type: binding
T6 construct: purchased Eurofins DiscoverX KINOMEscan (scanTK)
T6 sequence (P36888 27-993 R834Q): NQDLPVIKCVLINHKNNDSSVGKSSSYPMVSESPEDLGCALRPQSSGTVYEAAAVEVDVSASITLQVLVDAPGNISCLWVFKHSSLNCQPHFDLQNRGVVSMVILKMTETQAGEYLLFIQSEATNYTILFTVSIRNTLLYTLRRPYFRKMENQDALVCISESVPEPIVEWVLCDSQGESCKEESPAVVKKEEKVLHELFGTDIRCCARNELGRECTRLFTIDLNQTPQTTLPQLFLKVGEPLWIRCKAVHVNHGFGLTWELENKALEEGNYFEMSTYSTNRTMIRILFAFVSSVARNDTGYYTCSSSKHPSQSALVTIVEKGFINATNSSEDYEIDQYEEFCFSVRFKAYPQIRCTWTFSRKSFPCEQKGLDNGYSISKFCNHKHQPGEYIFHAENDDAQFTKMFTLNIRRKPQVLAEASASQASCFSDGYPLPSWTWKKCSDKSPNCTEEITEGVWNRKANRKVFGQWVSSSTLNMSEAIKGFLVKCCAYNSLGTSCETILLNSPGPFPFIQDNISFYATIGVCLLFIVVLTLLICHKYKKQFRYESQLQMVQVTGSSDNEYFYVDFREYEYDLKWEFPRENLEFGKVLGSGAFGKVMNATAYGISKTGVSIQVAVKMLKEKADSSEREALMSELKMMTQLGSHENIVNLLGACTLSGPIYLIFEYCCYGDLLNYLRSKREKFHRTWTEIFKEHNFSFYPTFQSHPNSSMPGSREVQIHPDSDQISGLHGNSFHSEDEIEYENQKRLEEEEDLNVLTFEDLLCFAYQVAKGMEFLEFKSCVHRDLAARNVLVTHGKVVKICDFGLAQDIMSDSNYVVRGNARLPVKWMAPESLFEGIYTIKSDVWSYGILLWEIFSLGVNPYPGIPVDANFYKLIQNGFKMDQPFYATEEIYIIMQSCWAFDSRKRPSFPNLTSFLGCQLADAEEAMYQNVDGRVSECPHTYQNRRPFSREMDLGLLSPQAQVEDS

[7] = target: T7, ABL1-phosphorylated (Homo sapiens, UniProt P00519); assay: KINOMEscan ScanTK; assay type: binding
T7 construct: purchased Eurofins DiscoverX KINOMEscan (scanTK)

[8] = target: T8, FRK (Homo sapiens, UniProt P42685); assay: KINOMEscan ScanTK; assay type: binding
T8 construct: purchased Eurofins DiscoverX KINOMEscan (scanTK)

[9] = target: T9, TYK2(JH2domain-pseudokinase) (Homo sapiens, UniProt P29597); assay: KINOMEscan ScanTK; assay type: binding
T9 construct: TYK2(JH2domain-pseudokinase); purchased Eurofins DiscoverX KINOMEscan (scanTK)

[10] = target: T10, EPHA4 (Homo sapiens, UniProt P54764); assay: KINOMEscan ScanTK; assay type: binding
T10 construct: purchased Eurofins DiscoverX KINOMEscan (scanTK)

[11] = target: wild-type BTK (Homo sapiens, UniProt Q06187); assay: BTK in vitro activity assay (ADP-Glo, poly-Glu:Tyr phosphorylation, TCEP)
[12] = target: T11, TIE1 (Homo sapiens, UniProt P35590); assay: KINOMEscan ScanTK; assay type: binding
T11 construct: purchased Eurofins DiscoverX KINOMEscan (scanTK)

[13] = target: T12, EPHA5 (Homo sapiens, UniProt P54756); assay: KINOMEscan ScanTK; assay type: binding
T12 construct: purchased Eurofins DiscoverX KINOMEscan (scanTK)
T12 sequence (P54756 25-1037): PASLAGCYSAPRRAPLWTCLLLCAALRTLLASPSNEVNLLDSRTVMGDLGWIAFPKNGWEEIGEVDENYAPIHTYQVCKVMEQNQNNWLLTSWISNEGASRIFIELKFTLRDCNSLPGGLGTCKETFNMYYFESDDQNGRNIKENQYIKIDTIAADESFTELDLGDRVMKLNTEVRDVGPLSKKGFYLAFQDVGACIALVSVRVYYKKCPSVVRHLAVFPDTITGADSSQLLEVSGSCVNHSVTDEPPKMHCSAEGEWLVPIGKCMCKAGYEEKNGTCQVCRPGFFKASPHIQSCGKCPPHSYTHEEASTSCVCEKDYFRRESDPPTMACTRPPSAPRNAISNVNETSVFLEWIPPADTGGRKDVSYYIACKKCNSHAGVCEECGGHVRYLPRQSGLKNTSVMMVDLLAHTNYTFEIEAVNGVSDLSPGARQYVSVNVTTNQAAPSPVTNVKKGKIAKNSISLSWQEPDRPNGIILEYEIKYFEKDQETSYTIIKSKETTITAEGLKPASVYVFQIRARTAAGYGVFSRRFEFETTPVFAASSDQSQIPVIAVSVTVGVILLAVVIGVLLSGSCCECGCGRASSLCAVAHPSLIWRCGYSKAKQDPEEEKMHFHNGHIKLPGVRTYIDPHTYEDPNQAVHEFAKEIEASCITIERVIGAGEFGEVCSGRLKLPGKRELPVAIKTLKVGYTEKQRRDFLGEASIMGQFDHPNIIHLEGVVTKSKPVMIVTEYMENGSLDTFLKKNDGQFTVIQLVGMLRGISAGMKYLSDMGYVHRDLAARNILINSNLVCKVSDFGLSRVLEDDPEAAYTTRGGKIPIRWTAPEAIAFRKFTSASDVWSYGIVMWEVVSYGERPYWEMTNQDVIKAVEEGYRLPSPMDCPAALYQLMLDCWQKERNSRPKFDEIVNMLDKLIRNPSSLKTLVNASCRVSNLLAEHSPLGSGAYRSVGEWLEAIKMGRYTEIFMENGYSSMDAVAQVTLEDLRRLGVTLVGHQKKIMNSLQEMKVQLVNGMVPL

T5 sequence (Q16620 32-822): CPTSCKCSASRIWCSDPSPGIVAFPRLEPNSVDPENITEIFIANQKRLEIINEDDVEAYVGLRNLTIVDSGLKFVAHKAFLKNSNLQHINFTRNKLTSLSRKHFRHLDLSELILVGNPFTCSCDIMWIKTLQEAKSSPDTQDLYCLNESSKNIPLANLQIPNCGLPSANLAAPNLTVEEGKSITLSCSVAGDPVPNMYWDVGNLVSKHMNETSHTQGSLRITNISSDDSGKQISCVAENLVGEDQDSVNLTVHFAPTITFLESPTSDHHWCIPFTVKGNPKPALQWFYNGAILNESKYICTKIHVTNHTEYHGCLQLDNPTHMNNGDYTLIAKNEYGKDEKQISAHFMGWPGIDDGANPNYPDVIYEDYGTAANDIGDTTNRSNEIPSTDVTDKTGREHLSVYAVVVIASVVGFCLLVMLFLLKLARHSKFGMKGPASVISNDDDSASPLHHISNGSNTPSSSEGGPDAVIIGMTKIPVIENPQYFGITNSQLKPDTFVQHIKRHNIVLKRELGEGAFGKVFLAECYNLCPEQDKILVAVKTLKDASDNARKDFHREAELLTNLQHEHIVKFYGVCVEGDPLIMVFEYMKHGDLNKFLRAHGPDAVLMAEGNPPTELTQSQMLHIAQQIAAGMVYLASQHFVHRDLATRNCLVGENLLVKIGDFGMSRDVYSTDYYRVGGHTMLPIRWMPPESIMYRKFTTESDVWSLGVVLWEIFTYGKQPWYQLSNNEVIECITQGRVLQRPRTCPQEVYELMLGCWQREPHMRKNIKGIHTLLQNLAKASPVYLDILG
T3 sequence (P00533 25-1210 T790M): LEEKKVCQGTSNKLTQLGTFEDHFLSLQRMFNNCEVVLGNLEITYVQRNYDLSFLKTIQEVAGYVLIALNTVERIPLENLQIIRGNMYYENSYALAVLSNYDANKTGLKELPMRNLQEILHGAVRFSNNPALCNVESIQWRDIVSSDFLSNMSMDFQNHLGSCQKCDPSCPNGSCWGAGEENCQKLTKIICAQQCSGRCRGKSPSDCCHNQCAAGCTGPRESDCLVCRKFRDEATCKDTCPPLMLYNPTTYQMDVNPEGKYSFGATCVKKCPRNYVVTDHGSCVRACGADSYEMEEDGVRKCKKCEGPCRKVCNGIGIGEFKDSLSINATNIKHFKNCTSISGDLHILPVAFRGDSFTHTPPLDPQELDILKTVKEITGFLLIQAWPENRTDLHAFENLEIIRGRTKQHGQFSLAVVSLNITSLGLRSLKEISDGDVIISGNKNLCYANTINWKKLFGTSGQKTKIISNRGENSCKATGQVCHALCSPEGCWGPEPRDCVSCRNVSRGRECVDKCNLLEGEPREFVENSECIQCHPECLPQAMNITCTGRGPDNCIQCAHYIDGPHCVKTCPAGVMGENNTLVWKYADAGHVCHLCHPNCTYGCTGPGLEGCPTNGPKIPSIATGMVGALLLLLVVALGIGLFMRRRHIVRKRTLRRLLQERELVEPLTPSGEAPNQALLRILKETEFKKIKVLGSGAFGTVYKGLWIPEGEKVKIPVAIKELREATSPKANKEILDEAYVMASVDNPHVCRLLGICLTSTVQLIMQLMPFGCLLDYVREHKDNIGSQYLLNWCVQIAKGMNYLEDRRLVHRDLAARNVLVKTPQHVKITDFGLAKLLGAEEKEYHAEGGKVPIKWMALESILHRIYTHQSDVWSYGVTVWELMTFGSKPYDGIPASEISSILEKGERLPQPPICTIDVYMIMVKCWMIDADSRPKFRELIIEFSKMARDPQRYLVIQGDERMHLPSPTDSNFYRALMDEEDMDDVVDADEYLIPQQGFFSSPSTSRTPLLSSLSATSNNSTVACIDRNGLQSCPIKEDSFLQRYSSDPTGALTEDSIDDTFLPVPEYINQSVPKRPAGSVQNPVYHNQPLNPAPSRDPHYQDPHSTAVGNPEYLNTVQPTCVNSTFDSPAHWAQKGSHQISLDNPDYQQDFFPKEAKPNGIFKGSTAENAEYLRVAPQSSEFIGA
T1 sequence (P00533 with tags, fused parts or gaps DEL747-749/A750P limits assumed): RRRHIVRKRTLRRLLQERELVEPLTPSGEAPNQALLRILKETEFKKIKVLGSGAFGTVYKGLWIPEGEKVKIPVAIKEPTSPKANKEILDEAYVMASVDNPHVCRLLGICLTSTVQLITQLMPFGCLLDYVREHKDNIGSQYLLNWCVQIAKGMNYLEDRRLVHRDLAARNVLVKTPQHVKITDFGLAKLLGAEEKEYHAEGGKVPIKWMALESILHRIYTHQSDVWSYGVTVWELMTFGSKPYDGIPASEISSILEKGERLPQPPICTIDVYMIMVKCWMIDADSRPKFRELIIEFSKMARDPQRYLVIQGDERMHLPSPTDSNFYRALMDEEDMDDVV
T2 sequence (P21860 20-1342): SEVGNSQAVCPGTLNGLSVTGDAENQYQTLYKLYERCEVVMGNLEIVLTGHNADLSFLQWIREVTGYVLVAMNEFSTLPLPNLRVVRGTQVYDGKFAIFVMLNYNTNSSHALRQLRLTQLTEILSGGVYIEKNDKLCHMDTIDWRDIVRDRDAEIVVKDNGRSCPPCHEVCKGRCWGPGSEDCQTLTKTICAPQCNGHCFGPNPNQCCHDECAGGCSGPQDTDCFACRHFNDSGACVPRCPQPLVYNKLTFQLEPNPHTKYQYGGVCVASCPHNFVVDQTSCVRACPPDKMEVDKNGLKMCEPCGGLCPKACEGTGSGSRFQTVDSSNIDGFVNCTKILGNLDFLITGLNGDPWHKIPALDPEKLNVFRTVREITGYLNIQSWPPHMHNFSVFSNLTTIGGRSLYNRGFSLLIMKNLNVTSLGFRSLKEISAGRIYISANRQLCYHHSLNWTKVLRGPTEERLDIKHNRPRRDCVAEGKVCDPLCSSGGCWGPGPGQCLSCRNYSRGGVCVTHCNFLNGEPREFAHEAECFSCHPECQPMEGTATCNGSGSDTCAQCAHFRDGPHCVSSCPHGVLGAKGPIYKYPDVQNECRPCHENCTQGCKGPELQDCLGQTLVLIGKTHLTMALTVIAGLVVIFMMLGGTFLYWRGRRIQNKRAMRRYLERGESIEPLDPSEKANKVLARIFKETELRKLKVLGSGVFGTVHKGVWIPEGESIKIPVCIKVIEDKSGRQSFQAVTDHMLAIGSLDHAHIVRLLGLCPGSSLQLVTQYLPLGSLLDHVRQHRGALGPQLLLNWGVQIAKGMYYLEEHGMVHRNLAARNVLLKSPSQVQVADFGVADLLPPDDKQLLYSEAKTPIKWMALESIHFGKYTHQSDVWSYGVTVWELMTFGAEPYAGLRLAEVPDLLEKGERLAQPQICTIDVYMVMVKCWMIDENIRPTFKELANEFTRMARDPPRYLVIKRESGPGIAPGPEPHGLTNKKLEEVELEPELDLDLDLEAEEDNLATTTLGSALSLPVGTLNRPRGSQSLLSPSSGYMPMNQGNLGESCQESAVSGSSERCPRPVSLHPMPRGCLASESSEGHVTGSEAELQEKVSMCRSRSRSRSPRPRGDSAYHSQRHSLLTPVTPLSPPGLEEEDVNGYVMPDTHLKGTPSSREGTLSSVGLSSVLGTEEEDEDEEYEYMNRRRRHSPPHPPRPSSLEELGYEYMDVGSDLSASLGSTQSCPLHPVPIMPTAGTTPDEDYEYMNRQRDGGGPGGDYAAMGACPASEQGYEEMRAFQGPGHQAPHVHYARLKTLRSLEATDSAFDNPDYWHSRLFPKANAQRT
T9 sequence (P29597 575-869 limits assumed): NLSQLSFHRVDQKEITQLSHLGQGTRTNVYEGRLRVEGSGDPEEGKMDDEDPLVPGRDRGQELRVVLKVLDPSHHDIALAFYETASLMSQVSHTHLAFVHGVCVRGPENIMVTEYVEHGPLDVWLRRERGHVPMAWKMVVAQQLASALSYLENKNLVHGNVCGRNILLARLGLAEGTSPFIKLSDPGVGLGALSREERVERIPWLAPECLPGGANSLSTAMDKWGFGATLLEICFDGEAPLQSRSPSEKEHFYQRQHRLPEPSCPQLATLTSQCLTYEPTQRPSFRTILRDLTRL

Compound `CNC(=O)c1cnc(S(C)(=O)=O)nc1N1CCCC(n2nc(-c3ccc(Oc4ccccc4)cc3)c3c(N)ncnc32)C1` (stereo not drawn) [Compound 8d, 4-(3-(4-Amino-3-(4-phenoxyphenyl)-1H-pyrazolo[3,4-d]pyrimidin-1-yl)piperidin-1-yl)-N-methyl-2-(methylsulfonyl)pyrimidine-5-carboxamide] has a difference in %Control versus compound Ib at 1 µM ([1]; @1000nM) of 48.9%, a remaining binding at 1 µM ([1]; @1000nM, read-out: %Control) of 52% and a remaining binding at 1 µM ([1]; read-out: %Control @1000nM) of 52%. The % of control difference from compound Ib at 1 µM ([2]; @1000nM) was 8.9%, the remaining binding at 1 µM ([2]; @1000nM, read-out: %Control) was 8.9% and the remaining binding at 1 µM ([2]; read-out: %Control @1000nM) was 8.9%. For the same compound, the difference in % of control versus compound Ib at 1 µM ([3]; @1000nM) was 18.6%, the remaining binding at 1 µM ([3]; @1000nM, read-out: %Control) was 19% and the remaining binding at 1 µM ([3]; read-out: %Control @1000nM) was 19%. It also gave a remaining binding at 1 µM ([4]; @1000nM, read-out: %Control) of 91%, a remaining binding at 1 µM ([4]; read-out: %Control @1000nM) of 91% and a difference in %Control versus compound Ib at 1 µM ([5]; @1000nM) of -5%. The remaining binding at 1 µM ([5]; @1000nM, read-out: %Control) was 87%, the remaining binding at 1 µM ([5]; read-out: %Control @1000nM) was 87% and the difference in %Control versus compound Ib at 1 µM ([6]; @1000nM) was 29%. For the same compound, the remaining binding at 1 µM ([6]; @1000nM, read-out: %Control) was 90%, the remaining binding at 1 µM ([6]; read-out: %Control @1000nM) was 90% and the difference in %Control from compound Ib at 1 µM ([7]; @1000nM) was -5%. The remaining binding at 1 µM ([7]; @1000nM, read-out: %Control) was 55%, the remaining binding at 1 µM ([7]; read-out: %Control @1000nM) was 55% and the difference in %Control versus compound Ib at 1 µM ([8]; @1000nM) was 33.7%. The remaining binding at 1 µM ([8]; @1000nM, read-out: %Control) was 43%, the remaining binding at 1 µM ([8]; read-out: %Control @1000nM) was 43% and the difference in %Control versus Ib at 1 µM ([9]; @1000nM, read-out: % difference (compound - Ib %Control)) was 8%. The remaining binding at 1 µM ([9]; @1000nM, read-out: %Control) was 96%, the remaining binding at 1 µM ([9]; read-out: %Control @1000nM) was 96% and the %Control difference from compound Ib at 1 µM ([10]; @1000nM) was 9%. The remaining binding at 1 µM ([10]; @1000nM, read-out: %Control) was 100%, the remaining binding at 1 µM ([10]; read-out: %Control @1000nM) was 100% and the IC50 [11] was 28 ± 6 nM. For the same compound, the remaining activity at 0.1 µM ([11]; read-out: Remaining BTK activity (%)) was 2 ± 0.5%, the remaining binding at 1 µM ([12]; @1000nM, read-out: %Control) was 69% and the remaining binding at 1 µM ([12]; read-out: %Control @1000nM) was 69%. The difference in %Control from compound Ib at 1 µM ([13]; @1000nM) was 4%, the remaining binding at 1 µM ([13]; @1000nM, read-out: %Control) was 100% and the remaining binding at 1 µM ([13]; read-out: %Control @1000nM) was 100%.
